Test results reported in EPA's CvTdb concentration-time database.
Values joined by “and” are separate entries in the source; they are usually repeats but may differ in a detail not shown here. Equal entries are not always repeated.

Tests used:
[1] = tested on: rat; experiment: concentration in blood after dosing; negative times count back from the end of exposure; settings: dosed: tert-amyl methyl ether, inhalation, duration: 6 hr, male, F344 (Charles River)
[2] = tested on: Rat; experiment: concentration in brain after dosing; settings: dosed: Perfluorohexanoic Acid, 80 mg/kg, oral
[3] = tested on: Rat; experiment: concentration in liver after dosing; settings: dosed: Perfluorohexanoic Acid, 80 mg/kg, oral
[4] = tested on: Rat; experiment: concentration in kidney after dosing; settings: dosed: Perfluorohexanoic Acid, 80 mg/kg, oral
[5] = tested on: Rat; experiment: concentration in plasma after dosing; settings: dosed: Perfluorohexanoic Acid

CCC(C)(C)OC [tertiary amyl methyl ether]
[1]
Settings	concentration in blood
0.2936 h, 2500 ppm	40100 ng/mL
0.2946 h, 2500 ppm	38200 ng/mL
0.2952 h, 2500 ppm	37100 ng/mL
0.4294 h, 100 ppm	828 ng/mL
0.4521 h, 100 ppm	1040 ng/mL
0.454 h, 100 ppm	626 ng/mL
0.4709 h, 500 ppm	5800 ng/mL
0.4728 h, 500 ppm	4750 ng/mL
0.4735 h, 500 ppm	4380 ng/mL
0.8269 h, 2500 ppm	31500 ng/mL
0.8277 h, 2500 ppm	30000 ng/mL
0.8285 h, 2500 ppm	28500 ng/mL
0.8324 h, 2500 ppm	20900 ng/mL
0.9984 h, 100 ppm	528 ng/mL
0.9987 h, 100 ppm	470 ng/mL
0.9992 h, 100 ppm	366 ng/mL
1.018 h, 500 ppm	3640 ng/mL and 3270 ng/mL
1.021 h, 500 ppm	1850 ng/mL
1.733 h, 100 ppm	268 ng/mL
1.755 h, 100 ppm	523 ng/mL
1.756 h, 100 ppm	418 ng/mL
1.756 h, 500 ppm	1480 ng/mL
1.757 h, 500 ppm	741 ng/mL
1.926 h, 2500 ppm	12000 ng/mL
1.927 h, 2500 ppm	9450 ng/mL
1.928 h, 2500 ppm	6650 ng/mL
3.92 h, 2500 ppm	4450 ng/mL
3.921 h, 2500 ppm	2070 ng/mL
3.993 h, 500 ppm	370 ng/mL
9.964 h, 500 ppm	61.7 ng/mL
17.98 h, 2500 ppm	42 ng/mL
176 s, 100 ppm	1240 ng/mL
260 s, 100 ppm	1350 ng/mL
269 s, 100 ppm	782 ng/mL
284 s, 500 ppm	10600 ng/mL
292 s, 500 ppm	9510 ng/mL
299 s, 500 ppm	8400 ng/mL
309 s, 500 ppm	6910 ng/mL

[1], during exposure
Settings	concentration in blood
-254 s, 2500 ppm	82700 ng/mL
-248 s, 2500 ppm	79200 ng/mL
-228 s, 500 ppm	18600 ng/mL
-5.888 h, 2500 ppm	24900 ng/mL
-5.887 h, 100 ppm	1060 ng/mL
-5.887 h, 2500 ppm	22400 ng/mL
-5.886 h, 2500 ppm	20000 ng/mL
-5.884 h, 2500 ppm	17200 ng/mL
-5.883 h, 2500 ppm	14400 ng/mL
-5.878 h, 500 ppm	2960 ng/mL
-5.864 h, 100 ppm	1190 ng/mL
-5.863 h, 100 ppm	1130 ng/mL
-5.858 h, 2500 ppm	27500 ng/mL
-5.853 h, 500 ppm	6980 ng/mL
-5.85 h, 500 ppm	5560 ng/mL
-5.848 h, 500 ppm	4010 ng/mL
-5.841 h, 100 ppm	1460 ng/mL
-5.522 h, 2500 ppm	37700 ng/mL
-5.521 h, 2500 ppm	36200 ng/mL
-5.494 h, 2500 ppm	44100 ng/mL
-5.492 h, 2500 ppm	41100 ng/mL
-5.475 h, 500 ppm	9570 ng/mL
-5.474 h, 500 ppm	9200 ng/mL
-5.464 h, 100 ppm	1660 ng/mL and 1610 ng/mL
-5.442 h, 100 ppm	2030 ng/mL
-5.158 h, 2500 ppm	56700 ng/mL
-5.157 h, 2500 ppm	55100 ng/mL
-5.131 h, 2500 ppm	64200 ng/mL
-5.129 h, 2500 ppm	60300 ng/mL
-5.111 h, 100 ppm	2080 ng/mL
-5.109 h, 100 ppm	1560 ng/mL
-5.099 h, 500 ppm	13500 ng/mL
-5.093 h, 500 ppm	10600 ng/mL
-5.092 h, 100 ppm	3060 ng/mL
-5.089 h, 100 ppm	2490 ng/mL
-4.169 h, 100 ppm	2960 ng/mL
-4.167 h, 100 ppm	2490 ng/mL
-4.165 h, 100 ppm	2180 ng/mL
-4.07 h, 100 ppm	1980 ng/mL
-4.067 h, 2500 ppm	51500 ng/mL
-4.046 h, 2500 ppm	72000 ng/mL
-4.045 h, 2500 ppm	69400 ng/mL
-4.044 h, 2500 ppm	66600 ng/mL
-4.016 h, 500 ppm	15000 ng/mL
-3.979 h, 500 ppm	12000 ng/mL
-2.249 h, 2500 ppm	85700 ng/mL
-2.248 h, 2500 ppm	83400 ng/mL
-1.978 h, 500 ppm	17800 ng/mL
-1.975 h, 500 ppm	16400 ng/mL
-1.969 h, 100 ppm	2860 ng/mL
-1.968 h, 100 ppm	2600 ng/mL
-1.948 h, 100 ppm	3320 ng/mL
-1.945 h, 100 ppm	2760 ng/mL
-0.1231 h, 500 ppm	16400 ng/mL
-0.1186 h, 500 ppm	13900 ng/mL
-0.1052 h, 2500 ppm	89600 ng/mL
-0.1033 h, 100 ppm	3440 ng/mL
-0.1027 h, 100 ppm	3320 ng/mL
-0.1027 h, 2500 ppm	84600 ng/mL
-0.1008 h, 100 ppm	2910 ng/mL

O=C(O)C(F)(F)C(F)(F)C(F)(F)C(F)(F)C(F)(F)F [Perfluorohexanoic Acid]
Settings	concentration in brain, [2] [ng/g]	concentration in kidney, [4] [ng/g]	concentration in liver, [3] [ng/g]
0.5 h, Female, Harlan Sprague Dawley	1210	55900	32800
0.5 h, Male, Harlan Sprague Dawley	2270	207000	105000
1 h, Female, Harlan Sprague Dawley	1770	98400	42200
1 h, Male, Harlan Sprague Dawley	2670	74100	87200
3 h, Female, Harlan Sprague Dawley	703	45000	8510
3 h, Male, Harlan Sprague Dawley	1170	44300	29600
3 h, Male, Harlan Sprague Dawley - this seems too small	799	56500	36100
6 h, Female, Harlan Sprague Dawley	–	14200	5010
6 h, Male, Harlan Sprague Dawley	495	10900	9650
12 h, Female, Harlan Sprague Dawley	–	663	–
12 h, Male, Harlan Sprague Dawley	–	2880	3140

concentration in plasma [ng/mL], [5]
Settings	40 mg/kg	80 mg/kg
0.25 h, iv, Male, F344	21800	–
0.25 h, oral, Male, Harlan Sprague Dawley	27900	92000
0.5 h, iv, Female, Harlan Sprague-Dawley	6320	–
0.5 h, iv, Male, F344	26100	–
0.5 h, oral, Male, Harlan Sprague Dawley	64700	151000
0.75 h, iv, Female, Harlan Sprague-Dawley	1990	–
0.75 h, iv, Male, F344	12600	–
0.75 h, oral, Male, Harlan Sprague Dawley	55100	110000
1 h, iv, Female, Harlan Sprague-Dawley	327	–
1 h, iv, Male, F344	9120	–
1 h, oral, Male, Harlan Sprague Dawley	48300	127000
1.5 h, iv, Male, F344	7580	–
3 h, iv, Male, F344	3740	–
3 h, oral, Male, Harlan Sprague Dawley	34400	60100
3 h, oral, Male, Harlan Sprague Dawley - this seems too small	–	59500
5 min, iv, Male, F344	22900	–
5 min, oral, Male, Harlan Sprague Dawley	14600	59900
6 h, iv, Male, F344	3840	–
6 h, oral, Male, Harlan Sprague Dawley	18300	27700
9 h, oral, Male, Harlan Sprague Dawley	3710	3460
12 h, iv, Male, F344	57.2	–
12 h, oral, Male, Harlan Sprague Dawley	2040	–
24 h, iv, Male, F344	68.1	–
24 h, oral, Male, Harlan Sprague Dawley	222	627
